In US20250264459A1, “IN VITRO ASSAY TO PREDICT CARDIOTOXICITY” (Stemina Biomarker Discovery, Inc., priority 2018, published 2025):
Like-named read-outs stand apart in the source and are kept apart here.

What was measured:
[1] = cited from earlier work
[2] = test system: human iPSC-CM (iCell Cardiomyocytes2); assay: Spent-media metabolomics (LC-MS) cardiotoxicity prediction models, blinded test set; conditions: for Global Tox Model Prediction: cardiotoxic vs non-cardiotoxic, at the Exposure (μM) listed per compound in Table 3, model from confirmed metabolites and viability; for Functional Model Prediction: functional vs general/structural cardiotoxicants, at the Exposure (μM) listed per compound in Table 3
Procedure: The reproducibility of the putative biomarkers of cardiotoxicity identified during the dose-response study was evaluated using two replicates of the optimized single exposure levels identified through the dose-response analyses. […] Predictive models and feature rankings were performed using a combined set HILIC and CS features as well as each method alone.

For CC(=O)Oc1ccccc1C(=O)O [Acetylsalicylic Acid], the “Cmax Total” value ([1]; therapeutic total Cmax) is given as 10 µM, the “Global Tox Model Prediction” value [2] is given as “−” and the “Functional Model Prediction” value [2] is given as “−”.
For CC(C)NCC(O)c1ccc(NS(C)(=O)=O)cc1 (centres unmarked) [Sotalol], the “Cmax Total” value ([1]; therapeutic total Cmax) is given as 15 µM, the “Global Tox Model Prediction” value [2] is given as “+” and the “Functional Model Prediction” value [2] is given as “+”.
For Cc1cn(-c2cc(NC(=O)c3ccc(C)c(Nc4nccc(-c5cccnc5)n4)c3)cc(C(F)(F)F)c2)cn1 [Nilotinib], the “Cmax Total” value ([1]; therapeutic total Cmax) is given as 3 µM, the “Global Tox Model Prediction” value [2] is given as “+” and the “Functional Model Prediction” value [2] is given as “−”.
In the case of CS(=O)(=O)OCCCCOS(C)(=O)=O [Busulfan], the “Cmax Total” value ([1]; therapeutic total Cmax) is given as 50 µM, the “Global Tox Model Prediction” value [2] is given as “+” and the “Functional Model Prediction” value [2] is given as “−”.
In the case of CC(C)COCC(CN(Cc1ccccc1)c1ccccc1)N1CCCC1 (centres unmarked) [Bepridil], the “Cmax Total” value ([1]; therapeutic total Cmax) is listed as 3.3 µM, the “Global Tox Model Prediction” value [2] is listed as “+” and the “Functional Model Prediction” value [2] is listed as “+”.
For CCCc1nn(C)c2c(=O)[nH]c(-c3cc(S(=O)(=O)N4CCN(C)CC4)ccc3OCC)nc12 [Sildenafil], the “Global Tox Model Prediction” value [2] was “−” and the “Functional Model Prediction” value [2] was “−”.
In the case of OC[C@@H](O)[C@H](O)[C@@H](O)CO [Xylitol], the “Cmax Total” value ([1]; therapeutic total Cmax) is given as 0.5 µM, the “Global Tox Model Prediction” value [2] is given as “−” and the “Functional Model Prediction” value [2] is given as “−”.
In the case of CC[C@H](OC(C)=O)C(C[C@H](C)N(C)C)(c1ccccc1)c1ccccc1 [Levomethadyl Acetate], the “Cmax Total” value ([1]; in vivo) is given as 0.6 µM, the “Global Tox Model Prediction” value [2] is given as “+” and the “Functional Model Prediction” value [2] is given as “+”.
For OC[C@H]1O[C@@](CO)(O[C@H]2O[C@H](CO)[C@@H](O)[C@H](O)[C@H]2O)[C@@H](O)[C@@H]1O [Sucrose], the “Cmax Total” value ([1]; therapeutic total Cmax) is given as 1.8 µM, the “Global Tox Model Prediction” value [2] is given as “−” and the “Functional Model Prediction” value [2] is given as “−”.
